The nature of data set [1]: In vitro stability in 6 mM DTPA solution pH 7 (RP-HPLC). The note with it: 6 mM DTPA pH 7, 37 °C. The class given is physicochemical. How it is done: The in vitro stability of radiolabelled siderophores (3–6 μg/100 μl) was tested in fresh human serum (300 μl) and a 6 mM solution of diethylenetriaminepentaacetic acid (DTPA) pH = 7 (100 μl) at 37 °C at several time points (30, […]). After incubation, human serum samples were precipitated with acetonitrile or ethanol, centrifuged (2200×g, 3 min) and the supernatant analyzed. Degradation of the radiolabelled siderophore complexes was evaluated by RP-HPLC. Samples of the DTPA solutions were directly injected onto the HPLC.

Data set [2] can be described thus: Protein binding in fresh human serum (size-exclusion MicroSpin G-50). The data set is classed as in vitro ADME. The settings on record: for Protein binding (%) (mean, n = 2): 37 °C; for protein binding: after 24-h incubation period. How it is done:
Protein binding studies were performed by incubating radiolabelled siderophore (1–2 μg/150 μl) in fresh human serum (850 μl) and in PBS (850 μl) (control) at 37 °C for various time points (30, 60 and 120 min for [^68Ga]siderophores and 1, 4 and 24 h for [^89Zr]siderophores). After incubation, 25 μl of the sample was separated by size-exclusion chromatography (MicroSpin™ G-50 Columns; Sephadex G-50 (GE Healthcare, Buckinghamshire, UK)) by centrifugation at 2000×g for 2 min. Protein binding of radiolabelled siderophores was determined by measuring the activity distributed between the column (non protein-bound) and the eluate (protein-bound) using the automatic gamma counter.
In general terms: SEC sorts molecules by how far they enter the pores of the column.

A short description of data set [3]: Partition coefficient determination (octanol/PBS pH 7.4). The data set is classed as physicochemical. How it is done: Radiolabelled siderophore in 0.5 ml phosphate-buffered saline (PBS) pH = 7.4 was added to 0.5 ml octanol and the mixture was vigorously vortexed for 15 min. The aqueous and organic solvents were separated by centrifugation and 50 μl aliquots of both layers were collected and measured in the automatic gamma counter (WIZARD^2; PerkinElmer, Waltham, USA). Log P values were calculated from obtained data (mean of n = 6).

A short description of data set [4]: In vitro stability in fresh human serum (RP-HPLC). The data set is classed as in vitro ADME. The note with it: for Stability in human serum (%) (n = 1): 37 °C; for in vitro stability (in words): human serum and 6 mM DTPA, all examined media. How it is done: […] After incubation, human serum samples were precipitated with acetonitrile or ethanol, centrifuged (2200×g, 3 min) and the supernatant analyzed. Degradation of the radiolabelled siderophore complexes was evaluated by RP-HPLC. Samples of the DTPA solutions were directly injected onto the HPLC.

Data set [5] is described as follows: Ex vivo biodistribution in Balb/c mice. The settings on record: r.o. injection, 30 and 90 min p.i. The protocol: Biodistibution of radiolabelled siderophores was studied in female Balb/c mice (8 weeks old). Ga-68 and Zr-89 labelled siderophores (1–2 MBq/mouse, corresponding to 0.1–0.2 μg of siderophore per mouse) were injected retro-orbitally (r.o.). Animals were sacrificed by cervical dislocation 30 and 90 min post-injection (p.i.). Organs and tissues (blood, spleen, pancreas, stomach, intestine, kidneys, liver, heart, lung, muscle and femur) were removed and weighed. The amount of radioactivity in the samples was measured in an automatic gamma counter. Results were expressed as percentage of injected dose per gram organ (%ID/g).

Data set [6] can be described thus: Small animal PET/CT imaging in Balb/c mice. The class given is in vivo. The note with it: r.o. injection, 5-10 MBq. How it is done:
PET and computed tomography (CT) images were acquired with an Albira PET/SPECT/CT small animal imaging system (Bruker Biospin Corporation, Woodbridge, CT, USA). Female Balb/c mice were r.o. injected with radiolabelled siderophores in a dose of 5–10 MBq corresponding to 0.5–1 μg of siderophore per mouse. Animals were anaesthetized with isoflurane (FORANE, Abbott Laboratories, Abbott Park, IL, USA) (2 % flow rate) and positioned prone head first in the Albira system before the start of imaging. Static PET/CT imaging was carried out 5, 30 and 90 min p.i. for both Ga-68 and Zr-89 labelled siderophores. Animals injected with [^89Zr]siderophores were also imaged 4 h p.i. A 5-min PET scan (axial FOV 148 mm) was performed, followed by a CT scan (axial FOV 65 mm, 45 kVp, 400 μA, at 600 projections). Dynamic imaging was carried out immediately after the injection of radiolabelled siderophore for 90 min (5 min PET scan per frame). Scans were reconstructed with the Albira software (Bruker Biospin Corporation, Woodbridge, CT, USA) using the maximum likelihood expectation maximization (MLEM) and filtered backprojection (FBP) algorithms. After reconstruction, acquired data was viewed and analyzed with PMOD software (PMOD Technologies Ltd., Zurich, Switzerland). 3D images were obtained using VolView software (Kitware, Clifton Park, NY, USA). […]

Data set [7] in a line: Protein binding in fresh human serum (size-exclusion MicroSpin G-50). The class given is in vitro ADME. The note with it: 37 °C.

Turning to `CC(=O)N([O-])CCCCCNC(=O)CCC(=O)N([O-])CCCCCNC(=O)CCC(=O)N([O-])CCCCCN.[68Ga+3]` [[^68Ga]FOXB], the “Stability in DTPA solution (%) (n = 1)” value in data set [1] (incubation time 30 min) is 60.1%; in data set [1] (incubation time 60 min), 54.5%; in data set [1] (incubation time 120 min), 52.9%. Further, the “Protein binding (%) (mean, n = 2)” value in data set [2] (incubation time 30 min) was determined as 7.67%; in data set [2] (incubation time 60 min), 10.29%; in data set [2] (incubation time 120 min), 10.83%. Further, the “Log P (mean ± SD, n = 6)” value in data set [3] (Ga-68 labelled) is recorded as −3.56 ± 0.17. For the same molecule, the entries for the “Stability in human serum (%) (n = 1)” value in data set [4] (incubation time 30 min), in data set [4] (incubation time 60 min) and in data set [4] (incubation time 120 min) were 74.1%, 72.0% and 75.4%, respectively. In data set [4], the “in vitro stability (in words)” value was “pronounced in vitro instability”.
Take `O=C1CCC(=O)N([O-])CCCCCNC(=O)CCC(=O)N([O-])CCCCCNC(=O)CCC(=O)N([O-])CCCCCN1.[68Ga+3]` [[^68Ga]FOXE, [^68Ga]ferrioxamine E]: the “Stability in DTPA solution (%) (n = 1)” value is recorded as 94.3% in data set [1] (incubation time 30 min), 93.8% in data set [1] (incubation time 60 min) and 93.2% in data set [1] (incubation time 120 min). Also, the “Protein binding (%) (mean, n = 2)” value in data set [2] (incubation time 30 min) is on record as 0.27%; in data set [2] (incubation time 60 min), 0.24%; in data set [2] (incubation time 120 min), 0.53%. The “ex vivo biodistribution (in words)” value in data set [5] was “slightly higher radioactivity values in gastrointestinal tract”. Further, the “Log P (mean ± SD, n = 6)” value in data set [3] (Ga-68 labelled) is −1.65 ± 0.03. In data set [6], the “kinetics and excretion route in PET imaging (in words)” value was “quickly eliminated mainly via the kidneys”. The “Stability in human serum (%) (n = 1)” value in data set [4] (incubation time 30 min), in data set [4] (incubation time 60 min) and in data set [4] (incubation time 120 min) was 99.9% throughout.
For the molecule `CC(=O)NC1CCCN([O-])C(=O)C=C(C)CCOC(=O)C(NC(C)=O)CCCN([O-])C(=O)C=C(C)CCOC(=O)C(NC(C)=O)CCCN([O-])C(=O)C=C(C)CCOC1=O.[68Ga+3]` (centres unmarked) [[^68Ga]TAFC, [^68Ga]triacetylfusarinine C], the “Stability in DTPA solution (%) (n = 1)” value in data set [1] (incubation time 30 min) is 85.0%; in data set [1] (incubation time 60 min), 84.7%; in data set [1] (incubation time 120 min), 81.8%. Further, the figures for the “Protein binding (%) (mean, n = 2)” value in data set [2] (incubation time 30 min), in data set [2] (incubation time 60 min) and in data set [2] (incubation time 120 min) were 0.47%, 0.76% and 1.21%, respectively. The “Log P (mean ± SD, n = 6)” value in data set [3] (Ga-68 labelled) is −2.59 ± 0.15. Besides, the “Stability in human serum (%) (n = 1)” value in data set [4] (incubation time 30 min), in data set [4] (incubation time 60 min) and in data set [4] (incubation time 120 min) was 99.9% each time.
With `CC(=CC(=O)N([O-])CCCC1NC(=O)CNC(=O)C(CO)NC(=O)C(CO)NC(=O)C(CCCN([O-])C(=O)C=C(C)C(=O)O)NC(=O)C(CCCN([O-])C(=O)C=C(C)C(=O)O)NC1=O)C(=O)O.[89Zr+4]` (centres unmarked) [[^89Zr]FCHA], the “Stability in DTPA solution (%) (n = 1)” value worked out at 68.70% in data set [1] (Incubation time (min) 1), 65.27% in data set [1] (Incubation time (min) 4) and 54.22% in data set [1] (Incubation time (min) 24). For the same molecule, in data set [2], the protein binding came out at 31.1%. Further, the results for the “Protein binding (%) (mean, n = 2)” value in data set [7] (1) and in data set [7] (24) were 2.70% and 31.05%, respectively. Besides, the “Log P (mean ± SD, n = 6)” value in data set [3] (Zr-89 labelled) was −3.28 ± 0.37. Also, the results for the “Stability in human serum (%) (n = 1)” value in data set [4] (Incubation time (min) 4) and in data set [4] (incubation time 24 h) were 85.42% and 77.38%, respectively. Besides, the “in vitro stability (in words)” value in data set [4] is “less stable as compared to its Ga-68 labelled counterpart”.
For `CC(=O)N([O-])CCCCCNC(=O)CCC(=O)N([O-])CCCCCNC(=O)CCC(=O)N([O-])CCCCCN.[89Zr+4]` [[^89Zr]FOXB], the “Stability in DTPA solution (%) (n = 1)” value in data set [1] (Incubation time (min) 1) is listed as 91.56%; in data set [1] (Incubation time (min) 4), 90.39%; in data set [1] (Incubation time (min) 24), 87.10%. Moreover, the figures for the “Protein binding (%) (mean, n = 2)” value in data set [7] (1) and in data set [7] (24) were 1.63% and 1.84%, respectively. In data set [3] (Zr-89 labelled), the “Log P (mean ± SD, n = 6)” value is listed as −3.01 ± 0.07. For the same molecule, the “Stability in human serum (%) (n = 1)” value in data set [4] (Incubation time (min) 4) amounted to 99.70%; in data set [4] (incubation time 24 h), 99.53%. Moreover, the “in vitro stability (in words)” value in data set [4] is on record as “higher stability in all examined media”.
For `O=C1CCC(=O)N([O-])CCCCCNC(=O)CCC(=O)N([O-])CCCCCNC(=O)CCC(=O)N([O-])CCCCCN1.[89Zr+4]` [[^89Zr]FOXE, [^89Zr]ferrioxamine E], the figures for the “Stability in DTPA solution (%) (n = 1)” value in data set [1] (Incubation time (min) 1), in data set [1] (Incubation time (min) 4) and in data set [1] (Incubation time (min) 24) were 99.70%, 99.50% and 99.70%, respectively. The molecule further showed a protein binding in data set [2] of 16.6%. The entries for the “Protein binding (%) (mean, n = 2)” value in data set [7] (1) and in data set [7] (24) were 3.27% and 16.59%, respectively. Also, in data set [5], the “ex vivo biodistribution (in words)” value is “significantly higher radioactivity accumulation in the intestines and liver”. For the same molecule, in data set [3] (Zr-89 labelled), the “Log P (mean ± SD, n = 6)” value is −1.91 ± 0.04. In addition, in data set [6], the “kinetics and excretion route in PET imaging (in words)” value was “much slower kinetics and significant hepatobiliary elimination”. The “Stability in human serum (%) (n = 1)” value in data set [4] (Incubation time (min) 4) came to 99.70%; in data set [4] (incubation time 24 h), 98.34%.
For `CC(=O)NC1CCCN([O-])C(=O)C=C(C)CCOC(=O)C(NC(C)=O)CCCN([O-])C(=O)C=C(C)CCOC(=O)C(NC(C)=O)CCCN([O-])C(=O)C=C(C)CCOC1=O.[89Zr+4]` (centres unmarked) [[^89Zr]TAFC, [^89Zr]triacetylfusarinine C], the “Stability in DTPA solution (%) (n = 1)” value is 99.51% in data set [1] (Incubation time (min) 1), 99.50% in data set [1] (Incubation time (min) 4) and 99.50% in data set [1] (Incubation time (min) 24). In addition, the “Protein binding (%) (mean, n = 2)” value worked out at 0.99% in data set [7] (1) and 1.37% in data set [7] (24). Also, the “Log P (mean ± SD, n = 6)” value in data set [3] (Zr-89 labelled) is −1.95 ± 0.03. Also, the “Stability in human serum (%) (n = 1)” value in data set [4] (Incubation time (min) 4) was 98.72%; in data set [4] (incubation time 24 h) it was 98.50%.
